The target in one test is T1, lipase enzyme (Thermomyces lanuginosus, UniProt O59952, N255R/T253R).
T1 construct: purchased Novozymes LIPEX 100 L
T1 sequence (O59952 23-291 T253R/N255R): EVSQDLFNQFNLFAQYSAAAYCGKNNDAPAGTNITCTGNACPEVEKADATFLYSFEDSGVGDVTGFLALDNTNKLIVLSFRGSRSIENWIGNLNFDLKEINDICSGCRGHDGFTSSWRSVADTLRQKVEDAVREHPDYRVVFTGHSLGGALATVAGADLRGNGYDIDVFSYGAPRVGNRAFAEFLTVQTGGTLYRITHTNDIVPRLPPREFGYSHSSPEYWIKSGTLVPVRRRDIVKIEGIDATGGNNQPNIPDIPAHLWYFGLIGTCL
Put plainly: Total hydrolysis of rapeseed oil in a wash process: effect of surfactants on lipase enzyme activity (free oleic acid by HPLC). It is filed as biochemical. Particulars: about 100 ppm by weight surfactant; about 0.2 g/litre lipase concentrate; pH about 9.6; about 50° C.; 2° fH; compared with blank and LES (Sample C). Here is the method: (§1) The total hydrolysis of rapeseed oil in a wash process was tested with washing liquors that were always comprising the same concentration of a lipase enzyme concentrate. A blank test was performed without any added surfactant. This blank test served as the reference with which could be compared the other results obtained with the same washing liquor samples into which one of a number of different non-ionic surfactants were added.
In the experiments, the lipase concentrate was always present in a concentration of about 0.2 gram of the concentrate per litre of total liquor.
The washing tests were performed at a temperature of about 50° C. The water in the formulations was demineralised water obtained by reverse osmosis (RO).
Different washing liquors were prepared containing about 100 ppm by weight of a selected surfactant, to be compared with a blank liquor containing only the lipase enzyme concentrate and no surfactants.
(§2) For each liquor was tested the appearance of free oleic acid generated from the hydrolysis of a standard amount of rapeseed oil with which the liquor was brought in contact. Monitored by High Performance Liquid Chromatography (HPLC) was the quantitative release of free oleic acid (C18:1 fatty acid) in the washing liquor and/or present on the textile, as explained in the protocols that are described in detail in our copending patent application having the attorney docket reference PAT2549761 EP00 and filed on the same day as this application. Because oleic acid is the main fatty acid in the triglycerides of rapeseed oil, the generation of this acid as free fatty acid it is an excellent quantitative marker for the hydrolysis of rapeseed oil, in this context thus also for the activity of the lipase enzyme.
A series of tests were performed using washing liquors having a hardness of 2° fH. […] For each surfactant choice 2 duplicate samples were tested, except for Sample J (3 duplicates) and Sample K (only 1 sample tested). […] Also shown for each bar with a surfactant is an error bar showing the difference between the lowest and the highest of the duplicates.
As to 5EO-C13-C15 [M], the “effect of the surfactant on lipase activity in the washing liquor (in words)” value (“effect of the surfactant” for short) was “relatively benign”.

5EO-isoC13: the “effect of the surfactant” value is listed as “not better than the conventional LES surfactant”. Still for that read-out and setting: for 7EO-C13-15 [N] the value was “much larger depressing effect”; for 7EO-isoC13 [F], “not better than the conventional LES surfactant”; for 9EO-isoC13 [G], “not better than the conventional LES surfactant”. Still for that read-out and setting: for 10EO-isoC13 [H] the value was “not better than the conventional LES surfactant”. On to C8-C10 APG-DP of 1.7 [Sample K], for which the “effect of the surfactant” value is “much lower depressing effect”. As for “C8-C10 alkyl polyglucoside (APG) with an average degree of polymerisation (DP) of 1.5”, the “effect of the surfactant” value was “much lower depressing effect”. Still for that read-out and setting: for C8-C16 APG-DP of 1.5 [Sample J] the value was “much lower depressing effect”.

As for “C9-C11 fatty alcohol alkoxylated with an average ethoxylation degree of about 6 and an average propoxylation degree of about 4 [Sample O]”, the “effect of the surfactant” value is listed as “worse than the LES reference”. Still for that read-out and setting: the value for C12-C14 amine oxide [P] was “significant boost”. The same measure, in the same setting: the value for “a mixture of linear C13-C15 alcohol that has been ethoxylated to an average degree of about 3” was “relatively benign”; that for “isotridecyl alcohol ethoxylated to an average degree of ethoxylation of about 3” was “not better than the conventional LES surfactant”.

Staying with this test, now noted: about 100 ppm by weight surfactant; about 0.2 g/litre lipase concentrate; pH about 9.6; about 50° C.; hardness 2° fH.
Consider Lauryl ether sulphate [Sample C], for which the “lipase activity relative to the blank liquor (A), set at 100%” value is “about 40%”. “Linear Alkyl Benzene Sulphonate [Sample B]”: the “lipase activity relative to the blank liquor (A), set at 100%” value turned out to be 12%.

The next test addresses T1, lipase enzyme. Put plainly: Effect of surfactant concentration on lipase activity in the washing liquor. It is filed as biochemical.
Settings: not given
Here is the method: as §1, §2
Extra experiments were performed with 5EO-isoC13 surfactant.
Turning to 5EO-isoC13, the “surfactant concentration at which the suppressing activity on lipase becomes noticeable” value was found to be 10 ppm by weight and the “surfactant concentration until which the suppressing effect further grows” value is recorded as “about 100 ppm by weight”.

Still in this test, the particulars now being: from about 100 up to 250 ppm by weight surfactant.
For 5EO-isoC13, the “suppressing effect when further increasing the surfactant presence” value was “remains about the same”.

Source of the values: patent US20240316513A1, “METHOD AND APPARATUS FOR ON-SITE PREPARATION AND DOSING OF AN ENZYME-CONTAINING DETERGENT FORMULATION” (CHRISTEYNS, priority 2021, published 2024).
